Measurements published in patent US6596738B1, “Heterocyclic compound, composition and method for inhibiting adenosine deaminase” (Fujisawa Pharmaceutical Co., Ltd., priority 1999, dated 2003).
Each block holds one molecule with its values, some of them ahead of it.

Experiments:
[1] = molecular target: T1, Human ADA (Homo sapiens, UniProt P00813); assay: Adenosine deaminase (ADA) enzyme assay [2], IC50 of Vmax inhibition; type: biochemical
T1 construct: made in house; host or cells: ADA-deficient bacterial strain
T1 sequence (P00813 1-363): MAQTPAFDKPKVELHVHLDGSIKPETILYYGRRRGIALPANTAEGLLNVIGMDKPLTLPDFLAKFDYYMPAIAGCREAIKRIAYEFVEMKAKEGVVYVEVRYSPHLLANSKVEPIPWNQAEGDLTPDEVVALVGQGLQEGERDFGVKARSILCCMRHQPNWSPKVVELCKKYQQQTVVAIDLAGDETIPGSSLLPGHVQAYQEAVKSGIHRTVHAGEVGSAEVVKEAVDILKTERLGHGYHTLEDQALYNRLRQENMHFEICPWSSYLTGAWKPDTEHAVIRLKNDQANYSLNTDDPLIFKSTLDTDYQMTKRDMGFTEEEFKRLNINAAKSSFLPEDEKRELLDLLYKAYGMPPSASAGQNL
Description: Human ADA was expressed and purified from ADA-deficient bacterial strain. Reaction mixture of a total volume of 200 μl contained 0.16 μg/ml of ADA, 0.1 mM of adenosine and test compound in 10 mM phosphate buffer saline (pH 7.4). The reaction was started by addition of ADA to a mixture of adenosine and test compound.

[2] = molecular target: T1, Human ADA; assay: Adenosine deaminase (ADA) enzyme assay [1], Ki by Dixon plot; type: biochemical; settings: 25 mU/ml ADA, varying concentrations of adenosine, 10 mM phosphate buffer saline pH 7.4, room temperature, A265 for 5 minutes
Description: The reaction velocity (V) is measured by a change in absorbance at 265 nm (A265) resulting from the deamination of adenosine. Human ADA was expressed and purified from ADA-deficient bacterial strain. Reaction mixtures in a total volume of 200 μl contained 25 mU/ml of ADA and varying concentrations of adenosine and test compounds in 10 mM phosphate buffer saline (pH 7.4). The reaction was started by addition of ADA to a mixture of adenosine and test compound. The reaction was followed at room temperature by recording decrease in A265 for 5 minutes in SPECTRAmax 250 (Molecular Devices, USA) to automatically calculate Vmax. The inhibition constant (Ki) values of test compounds were determined by Dixon plot.

- IC50 [1]: 27 nM
SMILES: C[C@H](O)[C@@H](CCc1cccc2ccccc12)n1cncn1 [Compound A, 1-[(2S,3R)-2-Hydroxy-5-(1-naphthyl)-3-pentyl]-1,2,4-triazole]

- melting point: 127 to 130 °C
SMILES: NC(=O)c1cn([C@@H](CO)CCn2ccc3ccccc32)cn1 [Example 2, 1-[(R)-1-hydroxy-4-(1-indolyl)-2-butyl]imidazole-4-carboxamide]

- Ki [2]: 16 nM
SMILES: NC(=O)c1cn([C@@H](CO)CCn2ccc3ccc(NC(=O)CCCc4ccccc4)cc32)cn1 [Example 6-(2), 1-[(R)-1-Hydroxy-4-(6-(4-phenylbutyrylamino)indol-1-yl)-2-butyl]imidazole-4-carboxamide]
